Experimental data: US12138398B2, “Methods and devices for providing a stimulus to a subject to induce gamma oscillations” (Massachusetts Institute of Technology, priority 2015, dated 2024)
“Also recorded” adds a separate entry of the source.

Key:
Format in all cases: in vivo, mouse
CK-p25 Tg mice [1] = assay: Brain weight and lateral ventricle expansion in CK-p25 Tg mice
Experimental: A study was conducted to examine the effect of gamma exposure and/or administration in accordance with some embodiments on DNA damage and neuronal loss in the visual cortex of a subject. For the study, an inducible mouse model of p25 accumulation (i.e., a creatine kinase carboxyl-terminal fragment p25 Tg mouse (CK-p25 Tg mouse)) was used. […] A study was conducted to compare groups of mice under different treatment regimens. FIG. 84 is a diagram of the groups including CK-control mice 8400, untreated CK-p25 Tg mice 8402, CK-p25 Tg mice treated with memantine (10 mg/kg daily) 8404, CK-p25 Tg mice exposed to the 40-Hz light flicker (one hour daily for 6 weeks) in accordance with some embodiments 8406, and CK-p25 Tg mice treated with memantine and also exposed to the 40-Hz light flicker 8408. Memantine is a medication used with limited success to treat severe AD by blocking NMDA receptors, thereby acting on the glutamatergic system. […] For example, gamma exposure reduced and/or prevented CKp-25-induced loss of brain weight. FIG. 85 is bar graph comparing brain weight change in CK-control mice, untreated CK-p25 Tg mice, CK-p25 Tg mice treated with memantine, CK-p25 Tg mice exposed to the 40-Hz light flicker in accordance with some embodiments, and CK-p25 Tg mice treated with both memantine and the 40-Hz light flicker. Brain weight loss was pronounced in untreated CK-p25 Tg mice, CK-p25 Tg mice treated with memantine, and CK-p25 Tg mice treated with both memantine and the 40-Hz light flicker. However, CK-p25 Tg mice exposed to the 40-Hz light flicker in accordance with some embodiments retained more brain weight. […] For example, gamma exposure reduced and/or prevented CKp-25-induced abnormal lateral ventricle expansion in subjects. FIG. 86 is bar graph comparing fold change of lateral ventricle expansion in CK-control mice, untreated CK-p25 Tg mice, CK-p25 Tg mice treated with memantine, CK-p25 Tg mice exposed to the 40-Hz light flicker in accordance with some embodiments, and CK-p25 Tg mice treated with both memantine and the 40-Hz light flicker with expansion in the CK-control mice as a baseline. Lateral ventricle expansion was pronounced in untreated CK-p25 Tg mice, CK-p25 Tg mice treated with memantine, and CK-p25 Tg mice treated with both memantine and the 40-Hz light flicker. Lateral ventricles in CK-p25 Tg mice exposed to the 40-Hz light flicker in accordance with some embodiments expanded much less than the lateral ventricles in the other CK-p25 Tg mice.

CK-p25 Tg mice [2] = assay: NeuN-positive cells (neuronal loss) in CK-p25 Tg mice
Experimental: A study was conducted to examine the effect of gamma exposure and/or administration in accordance with some embodiments on DNA damage and neuronal loss in the visual cortex of a subject. For the study, an inducible mouse model of p25 accumulation (i.e., a creatine kinase carboxyl-terminal fragment p25 Tg mouse (CK-p25 Tg mouse)) was used. […] A study was conducted to compare groups of mice under different treatment regimens. FIG. 84 is a diagram of the groups including CK-control mice 8400, untreated CK-p25 Tg mice 8402, CK-p25 Tg mice treated with memantine (10 mg/kg daily) 8404, CK-p25 Tg mice exposed to the 40-Hz light flicker (one hour daily for 6 weeks) in accordance with some embodiments 8406, and CK-p25 Tg mice treated with memantine and also exposed to the 40-Hz light flicker 8408. Memantine is a medication used with limited success to treat severe AD by blocking NMDA receptors, thereby acting on the glutamatergic system. FIG. 98 is a bar graph comparing the amount of NeuN-positive cells as a percentage of the NeuN-positive cells in CK-control mice for the CK-control mice, untreated CK-p25 Tg mice, CK-p25 Tg mice treated with memantine, CK-p25 Tg mice exposed to the 40-Hz light flicker in accordance with some embodiments, and CK-p25 Tg mice treated with both memantine and the 40-Hz light flicker. Thus, the percentage of the CK-control mice NeuN-positive cells are 100% in the CK-control mice, but only about 80% in untreated CK-p25 Tg mice, corroborating neuronal loss in the CK-p25 Tg mouse model. […] Thus, FIG. 98 illustrates how 40-Hz visual flicker treatment in accordance with some embodiments can preserve neurons in the visual cortex.

CK-p25 Tg mice [3] = assay: Cortical (Hoechst) and neuronal (NeuN) layer thickness in CK-p25 Tg mice; details: for thickness of neuronal layer of the insular cortex / thickness of SS1-neuronal layer: NeuN; for thickness of SS1-neuronal layer / thickness of SS1-cortical layer: somatosensory cortex
[4] = memantine + 40-Hz light flicker
[5] = memantine alone, compared to untreated CK-p25 Tg

## CC12CC3CC(C)(C1)CC(N)(C3)C2 [memantine]
CK-p25 Tg mice [1]; memantine 10 mg/kg daily
  Brain weight loss: pronounced
  Lateral ventricle expansion: pronounced; also recorded: largest
CK-p25 Tg mice [1]; [4]
  Brain weight loss: pronounced
  Lateral ventricle expansion: pronounced; also recorded: largest
CK-p25 Tg mice [2]; [4]
  neuronal loss (NeuN-positive cells) in hippocampus: prevented some neuronal loss
  neuronal loss (NeuN-positive cells) in insular cortex: prevented the least neuronal loss
  neuronal loss (NeuN-positive cells) in somatosensory cortex: prevented most neuronal loss
  neuronal loss (NeuN-positive cells) in visual cortex: failed to prevent as much neuronal loss
CK-p25 Tg mice [2]; [5]
  neuronal loss (NeuN-positive cells) in hippocampus: prevented some neuronal loss
  neuronal loss (NeuN-positive cells) in insular cortex: prevented some neuronal loss
  neuronal loss (NeuN-positive cells) in somatosensory cortex: failed to prevent any neuronal loss
  neuronal loss (NeuN-positive cells) in visual cortex: prevented some neuronal loss
CK-p25 Tg mice [3]; [4]
  thickness of neuronal layer of the insular cortex: 848 ± 15 µm
  thickness of cortical layer of the insular cortex: 965 ± 16 µm
  thickness of SS1-neuronal layer: 650 ± 11 µm
  thickness of SS1-cortical layer: 778 ± 13 µm
CK-p25 Tg mice [3]; memantine alone
  thickness of neuronal layer of the insular cortex: 850 ± 18 µm
  thickness of cortical layer of the insular cortex: 983 ± 12 µm
  thickness of SS1-neuronal layer: 629 ± 9 µm
  thickness of SS1-cortical layer: 756 ± 11 µm
